# Assays:
# [1] = tested on: stage 2 enteric ganglioid; settings: flow cytometry, stage 2 enteric ganglioids
# [2] = tested on: stage 1 enteric ganglioids; settings: MEA
# [3] = tested on: mouse colon; assay: Ex vivo colonic motility assay (organ bath, GIMM); settings: for CMMC intervals relative to the untreated condition: first experiment, five consecutive 10-min acquisitions, interval at 75th percentile
# Method: Preparation of solutions: Krebs buffer [NaCl (117 mM), KCl (4.7 mM), NaH2PO4 (1.2 mM), MgCl2 (1.5 mM), CaCl2·2H2O (2.5 mM), NaHCO3 (25 mM), Glucose (11 mM), pH 7.4] was placed in a 37° C. water bath and aerated with 95% 02 and 5% CO2 (carbogen) gas mixture for at least 30 minutes prior to experiment onset. “Drug” treatment solutions were freshly prepared by adding the drug compound into Krebs buffer before starting data acquisition. The solution with NOS1 inhibitor was prepared by adding N omega-nitro-L-arginine methyl ester hydrochloride (L-NAME) to the drug solutions making “Drug+L-NAME”.
# Tissue dissection: For each experimental replicate, a pair of 8-week-old wild type C57BL6 mice (male) were placed in a sealed chamber and euthanized using CO2 asphyxiation followed by cervical dislocation. The lower GI tract (cecum and colon) was removed and immediately transferred to 37° C. carbogenated Krebs buffer, with the fecal matter still inside. Adipose tissue and mesentery were removed before placing the colons in the organ bath reservoir of gastrointestinal motility monitor (GIMM) apparatus.
# Experimental set-up and procedure: GIMM was designed based on a previously reported model (Swaminathan et al., 2016). The organ reservoir of GIMM has two-chambers for recording two specimens simultaneously. It is connected to working solutions kept at 37° C. via a 4-channel peristaltic pump (WPI, PERIPRO-4LS). Lower GI tract was harvested and transferred to the organ bath with the Krebs buffer was flowing through. The cecum was pinned down at the proximal tip and the distal end of the colon was pinned through the serosa/mesentery. Five 10-min (for the first experiments) or sequential 6-min (for the sequential drug treatment in the presence and absence of L-NAME) videos were recorded using the IC capture software (Imaging Source) with a high resolution monochromatic firewire industrial camera (Imaging Source®, DMK41AF02) connected to a ⅔″ 16 mm f/1.4 C-Mount Fixed Focal Lens (Fujinon HF16SA1). While tissue in the control chamber was only exposed to Krebs solution, the order of solutions in the experimental chamber was: Krebs, drug compound, Krebs (6 min each), L-NAME (2 min), L-NAME in the presence of a drug compound (6 min) and Krebs (6 min). The chambers were cleaned after each acquisition.
# Data and statistical analysis: VolumetryG9a was used to generate the spatiotemporal map (STM) of each acquisition (Spear et al., 2018). Slow waves (SW) and colonic migrating motor complexes (CMMC) data were generated from STMs. Statistical analyses were performed using PRISM.
# For selected compounds, a more comprehensive and integrated target analysis was performed by combining reported experimental data (Binding DB) and computational methods (SEA, Carlsbad, Dinies, Swisstarget, Superdrug, Pubchem Bioassays, FIG. 2G). The effects of these compounds was tested on colonic motility in organ bath assays (FIG. 2H). In these assays, resected segments of mouse colon were maintained in a physiologic buffer to study motility patterns using video recording. In the first experiment the effect of all selected drug candidates was tested on mouse colonic motility, ex vivo (FIG. 2I). In each experiment, an untreated control and a drug-treated colon sample were tested side by side during five consecutive 10-min acquisitions. For each acquisition, instead of analyzing fecal outputs, which are generally variable, more sophisticated contraction analysis was performed by generating spatiotemporal maps from video data based on the changes in the colonic diameter over time, and used to calculate the rate of colonic migrating motor complexes (CMMC) and slow waves (SW).
# [4] = tested on: VEGFRs; settings: cited from earlier work
# [5] = tested on: PDGFRs; settings: cited from earlier work
# [6] = tested on: stage 1 NOS1::GFP enteric ganglioids; assay: NO neuron induction in stage 1 enteric ganglioids (flow cytometry); format: cell-based, human; settings: for NO neuron induction / NO neuron proportions in response to RTK ligands: stage 1 enteric ganglioids
# Method: List of antibodies and working dilutions is not shown.
# (§1) To identify compounds that induce NO neuron differentiation, enteric crestospheres were treated with 1694 compounds in the Selleck inhibitor Library™ and 12 hit compounds that increased the proportion of NOS1^+ neurons by at least eight folds were identified (FIG. 7A and FIG. 8A-B). […] After clustering the predicted protein targets, common patterns emerged for a subset of compounds.
# To determine the mechanism by which PP121 induced NO neuron enrichment in ganglioids, a combination of pharmacological and genetic approaches was used. […] The crestosphere snRNA-seq analysis confirmed the expression of PDGFRA, PDGFRB, ERBB2, and ERBB3 while the mRNA for VEGFRs were not detectable (FIG. 7L). The induction efficiency of NO neurons was evaluated in response to PDGF (PDGFR agonist), sunitinib (PDGFR and VEGFR antagonist), NRG1 (ERBBs agonist), and sapitinib (ERBBs antagonist) (FIG. 7M). […] To genetically confirm the role of PDGFR signaling in NO neuron induction, CRISPR-Cas9 was used to knock-out PDGFRA and PDGFRB in the enteric crestospheres and the percentage of NO neurons in stage 1 ganglioids was analyzed. NO neurons were […] in both PDGFRA and PDGFRB knock-out cultures further confirming the PP121 mechanism of action (FIG. 7O-P).
# [7] = tested on: stage 1 enteric ganglioids; assay: snRNA-seq comparison of PP121 treated vs control enteric ganglioids; format: cell-based, human; settings: snRNA-seq sub-clustering
# Method: All tubes and pipet tips used for cell harvesting were pre-treated with 1% BSA in 1×PBS. Cells were dissociated in Accutase (Stem Cell) at 37° C., in 10 min increments, with end-to-end rotation, until single cell suspension was obtained. The cells were washed in Cell Staining Buffer (Biolegend) and stained with TotalSeq HTO antibodies for 30 min on ice. The cells were washed twice in Cell Staining Buffer and filtered through a 40 μm pipette tip strainer (BelArt). […] The libraries were sequenced on Illumina NovaSeq sequencer in the Center for Advanced Technologies (UCSF). The cell feature matrices were extracted using kallisto/bustools, and demultiplexed using seurat.
# To compare the gene expression of control and PP121 treated cell types, neuronal subtypes and NO neuron subtypes, a subset dataset of each cell type and subtype annotation was first created. For each subset, the non-imputed average expression of all genes was then calculated for the control and PP121 treated cells using the “AverageExpression” function and natural log transformed for plotting. R2 values comparing the control and PP121 natural log expression values were calculated from linear modeling using the “y˜x” formula.
# To compare PP121 treated and untreated stage 1 enteric ganglioids in single cell resolution, snRNA-seq was performed, and both datasets combined.
# [8] = tested on: EGFRs; settings: cited from earlier work
# [9] = tested on: hESC-derived 2D ENS cultures (NOS1+ cells); assay: High-throughput screening to identify compounds that enrich NO neurons; format: cell-based, human; parameters: dose or concentration left out as unconfirmed; settings: 1694 inhibitors, treated D15-D20, read at day 40
# Method: Day 15 H9 hESC-derived enteric crestospheres were dissociated into single cells (accutase, Stemcell Technologies, 07920, 30 min, 37° C.), resuspended in ENC medium and were transferred into 384-well plates. Plates were incubated for 2 hours for cells to attach. Using a pin tool, drugs from a library of 1694 inhibitors (SelleckChem, USA) were added to wells at the final concentration of […] and plates were incubated with drugs until D20, when media were changed to ENC with no drugs. At day 40, cells were fixed, stained for NOS1 and imaged using InCellAnalyzer 2000 (GE Healthcare, USA). Hits were selected based on the fold increase of the percentage of NOS1^+ cells relative to the wells treated with vehicle (DMSO).
# as §1
# [10] = 6-min treatment, all five replicates
compound,measurement,setting,value
"CNC[C@H](O)c1ccc(O)c(O)c1 [Epinephrine, epinephrine]",neuronal cFOS expression,[1],induced neuronal cFOS expression
same,electrical firing of ganglioid neurons,[2],increased electrical firing
Cc1cccc(C#Cc2ccccc2)n1 [MPEP],CMMC intervals relative to the untreated condition,[3],promising effects on lowering CMMC intervals
Nc1ncnc2c1c(-c1cnc3[nH]ccc3c1)nn2C1CCCC1 [PP121],inhibitory activity on VEGFRs,[4],known inhibitory activity
same,inhibitory activity on PDGFRs,[5],known inhibitory activity
same,NO neuron induction efficiency by treatment window,"[6]; 2 μM PP121, five days at various time points, GFP signal",highest induction efficiency for cells treated during day 15-20
same,"NO neuron induction efficiency, concentration dependence","[6]; different PP121 concentrations at D15-D20, flow cytometry",dose-dependent effect
same,abundance of neuronal subtypes,[7],enriched cultures for neuronal subtypes EN D and H
same,inhibitory activity on EGFRs,[8],known inhibitory activity
same,fold increase of the percentage of NOS1+ cells relative to vehicle (DMSO),[9],highest % NOS1^+ fold increase in this subset of compounds
O=C1CCc2ccc(OCCCCN3CCN(c4cccc(Cl)c4Cl)CC3)cc2N1 [aripiprazole],CMMC intervals relative to the untreated condition,[3],promising effects on lowering CMMC intervals
Cc1cccc([C@H](C)c2cnc[nH]2)c1C [dexmedetomidine],average duration of LCEs,[3]; [10],increasing trend
same,total number of longitudinal contractile events (LCEs),[3]; [10],decrease
same,effects on LCEs after the drug removal,[3]; Krebs washout,reversed
same,effects on LCEs with L-NAME co-treatment,[3]; L-NAME co-treatment,blocked
same,effect on CMMC intervals with L-NAME,[3]; dexmedetomidine+L-NAME simultaneously,absent
same,CMMC intervals relative to the untreated condition,[3],promising effects on lowering CMMC intervals
same,CMMC intervals,"[3]; sequential 6-min treatments, five sample pairs, 1 μM, drug alone",decreased CMMC intervals in four out of five colon samples
O=C1CCC[C@@H]2[C@H]3CCCN4CCC[C@@H](CN12)[C@@H]34 [matrine],CMMC intervals relative to the untreated condition,[3],promising effects on lowering CMMC intervals
CNC(=O)CN1CCC(Oc2cc3c(Nc4cccc(Cl)c4F)ncnc3cc2OC)CC1 [sapitinib],NO neuron induction / NO neuron proportions in response to RTK ligands,[6],no significant effect
PDGF,NO neuron induction / NO neuron proportions in response to RTK ligands,[6],lower

# Source: patent US20250090501A1, “METHODS OF TREATING GUT MOTILITY DISORDERS” (THE REGENTS OF THE UNIVERSITY OF CALIFORNIA, priority 2022, published 2025)
